Measured values taken from patent US20140288113A1, “Extended Release Compositions Comprising Hydrocodone And Acetaminophen For Rapid Onset And Prolonged Analgesia That May Be Administered Without Regard To Food” (MALLINCKRODT LLC, priority 2013, published 2014).

What was measured:
[1] = system: hepatic GSH; experiment: Hepatic glutathione depletion after acetaminophen in Swiss mice (Brzeznicka and Piotrowski 1989); format: in vivo
Description: The bioequivalence level is 95%.

[2] = system: hepatic GSH; details: mice, cited from earlier work

For `CC(=O)Nc1ccc(O)cc1` [acetaminophen], the “safety exposure ratio compared with human levels (1.3 g/day, 70 kg)” value ([1]; Swiss mice 400 mg/kg) is listed as 22 fold, the “safety exposure ratio compared with human levels (1.3 g/day, 70 kg)” value ([1]; Swiss mice 600 mg/kg) is listed as 32 fold and the “time after administration at which circulating hepatic GSH changes began” value ([2]; 100 mg/kg to 600 mg/kg) is listed as no more than 15 min. For the same compound, the “time after injection of minimum GSH level” value ([2]; all dose groups) was 2 h.
